Test [1] has as its system hepatitis virus B (HBV) infection. The experiment in a line: iCell hepatocytes assay, delayed assay (compounds added three days after HBV infection). The note with it: for EC50: Hepatitis B virus, Hepatocyte, HBs ELISA. It counts as cell-based. How it is done:
(§1) The principle of the iCell hepatocyte 2.0 96 well assay is to evaluate the inhibitory effect of a test compound on hepatitis virus B (HBV) infection. In this assays the HBV core antigen (HBcAg) and/or extracellular antigen (HBeAg) and/or surface antigen (HBsAg) are used as a marker for HBV infection. Nuclei count may be used as an indication for compound toxicity.
(§2) In the standard assay set-up HBV infection and compound addition are performed on the same day, in the delayed assay the compounds are added three days after HBV infection. iCell hepatocytes 2.0 are human hepatocytes derived from induced pluripotent stem cells (iPSc) purchased from Cellular Dynamics international (CDI, R1027).
(§3) At day 0, iCell hepatocytes 2.0 (CDI, R1027) are thawed and seeded in collagen I coated 96well plates at 112 000c/well (100µL) in plating medium (RPMI supplemented with B27 supplement, 20 ng/mL recombinant human oncostatin M (OSM), 25µg/mL gentamicin, 0.1µM Dexamethasone and iCell medium supplement provided by CDI). Plates are incubated at 37°C, 5% CO2 and daily refreshed with plating medium for the following four days.
(§4) On day 5 and 6, plates are refreshed with 100µL maintenance medium (RPMI supplemented with B27 supplement, 25µg/mL gentamicin, 0.1µM Dexamethasone, and iCell medium supplement provided by CDI) and incubated at 37°C, 5% CO2 until the following day.
On day 7 (day of infection), the maintenance medium is removed from the assay plates and cells are infected with 50 µL of HBV mix (HBV virus, 4% PEG, 0% or 2% DMSO in maintenance medium). The assay plates were incubated overnight at 37°C, 5% CO2.
At day 1 post infection (day8), 50µL of HBV mix is removed from the assay plates and refreshed with 100 µL of maintenance medium. The assay plates are incubated at 37°C, 5% CO2 for three days.
At day 4 post infection (day 11) and day 7 post infection (day14), the supernatant is removed and 100 µL of compound series diluted 1/500 in maintenance medium is added to the assay plates (8 point serial dilution using 1/3 dilution steps in 100% DMSO or 8 point serial dilution using ¼ dilution steps, normalized for 0.2% DMSO. The assay plates were incubated at 37°C, 5% CO2 for three days.
At day 10 post infection (day 17), 100µL of supernatant is harvested and frozen to -20°C. The cells are fixed with 50 µL of 3.7% formaldehyde and incubated for 30 min at room temperature. After fixation, cells are washed four times with phosphate buffer saline (PBS) with the plate washer (Select 405, microplate washer, Biotek) and subjected to HBc staining. harvested supernatant is used for HBe and/or HBs ELISA.
(§5) The assay plates are blocked with blocking buffer (2% FBS, 3% BSA, 0.2% TritonX100 in PBS) for 1 h at room temperature.
(§6) After blocking, the assay plates are tapped manually and incubated with 50 µL diluted primary antibody (1/700 Rabbit-anti-HBc Ag, Dako, B0586 or 1/350 Rabbit-anti-HBc Ag, Invitrogen, PA516368) in blocking buffer and incubated for 90 min at room temperature.
(§7) After 4 washes of PBST (1XPBS + 0.05% Tween) with the plate washer, the assay plates are incubated with 100 µL of secondary antibody (Donkey-anti-rabbit Alexa 488, Lifetechnologies, A21206) 1/500 diluted in blocking buffer and incubated for 60 min at room temperature in the dark, then washed 4 times with PBST on the plate washer and incubated with 100µL of DAPI (Sigma D9542, stock 5mg/mL) 1/10000 diluted in PBS for 15-30 min at room temperature in the dark.
Finally, the assay plates are read out on a InCell Analyzer 2200 (GE Healthcare). […]
After blocking, 30 µL of sample and HBe Ag standard (recombinant hepatitis B virus E antigen protein, 4mg/mL, Abcam, ab91273) are added to the plate. The HBe Ag standard is 1/3 diluted in blocking buffer starting from 1.25µg/mL. A vehicle control is also included. The plate is incubated for 30 min at room temperature.
After sample incubation, the plates are washed 4 times with PBST on a platewasher followed by 2 washed of PBS. […]
(In general: In an ELISA, binding on a coated surface is turned into a signal by an enzyme label.)

Test [2] shares this test system. The experiment in a line: iCell hepatocytes assay, standard assay (HBc staining, HBe ELISA, HBs ELISA). It counts as cell-based. The note with it: for EC50: Hepatitis B virus, Hepatocyte. As to the method: as §1, §2, §3, §4
On day 7 (day of infection) the supernatant is removed from the assay plates and 25 µL of 1/250 diluted compound in maintenance medium and 25 µL of HBV mix (HBV virus, 8% PEG, 0% or 4% DMSO in maintenance medium) are added to the assay plates. Compounds series are either prepared manually as a 6 point serial dilution using 1/5 dilution steps in 100% DMSO or as an 8 point serial dilution using 1/3 dilution steps in 100% DMSO or as an 8 point serial dilution using ¼ dilution steps, normalized for 0.2% DMSO. The assay plates were incubated overnight at 37°C, 5% CO2.
On day 1 post infection (day 8) 50 µL of HBV/cpd mix is removed from the assay plates and refreshed with 100 µL of compound series diluted 1/500 in maintenance medium. The assay plates are incubated at 37°C, 5% CO2 and refreshed with compound series diluted 1/500 in maintenance medium every other day (at day 3 and day 5 post infection) or after three days of incubation (at day 4 post infection).
At day 7 post infection (day 14), 100µL of supernatant is harvested and frozen at -20°C. The cells were fixed with 50 µL of 3.7% formaldehyde and incubated for 30 min at room temperature. After fixation, cells are washed four times with phosphate buffer saline (PBS) with the plate washer (Select 405, microplate washer, Biotek) and subjected to HBc staining. The harvested supernatant is used for HBe and/or HBs ELISA.
as §5, §6, §7
Finally, the assay plates are read out on a InCell Analyzer 2200 (GE Healthcare).
A white lumitrac 600 384 well plate iss coated with 40µL of capture antibody (monoclonal Mouse-anti-HBe Ag, Fitzgerald, 10-H10) diluted 1/2000 in coating buffer (0.1M sodium carbonate pH 9.5) and incubated overnight at 4°C. […]

With `COCCCOc1cc2c(cc1F)-c1c(cc(C(=O)O)c(=O)n1C1CC1)C(C(C)C)O2` (stereo not drawn) [Compound 1, 1-cyclopropyl-9-fluoro-5-isopropyl-8-(3-methoxypropoxy)-2-oxo-5H-chromeno[4,3-b]pyridine-3-carboxylic acid], in test [1], the “Delayed assay HBs ELISA % inhibition” value is listed as “++ (50-75%)” and the EC50 (usually the concentration giving half of the maximal effect) lay in the range of 0.001 to 20 nM. Further, in test [2], the “Standard assay HBs ELISA % inhibition” value is reported as “++ (50-75%)” and the EC50 was 0.001 to 20 nM.
Consider `COCCCOc1cc2c(cc1Cl)-c1c(cc(C(=O)O)c(=O)n1C1CC1)CO2` [Compound 6, 9-chloro-1-cyclopropyl-8-(3-methoxypropoxy) -2-oxo-5H-chromeno[4,3-b]pyridine-3-carboxylic acid], for which, in test [1], the “Delayed assay HBs ELISA % inhibition” value is on record as “++ (50-75%)” and the EC50 lay within 22 to 50 nM. Besides, in test [2], the “Standard assay HBs ELISA % inhibition” value is reported as “+++ (75-100%)” and the concentration for a half-maximal effect (EC50) was in the range of 0.001 to 20 nM.
Taken in the same sequence, the figures for `CCC1Oc2cc(OCCCOC)c(F)cc2-c2c1cc(C(=O)O)c(=O)n2C1CC1` (stereo not drawn) [Compound 16, 1-cyclopropyl-5-ethyl-9-fluoro-8-(3-methoxypropoxy) -2-oxo-5H-chromeno[4,3-b]pyridine-3-carboxylic acid] were “++ (50-75%)”, 22 to 50 nM, “++ (50-75%)” and 22 to 50 nM.
On the same counts, the results for `COCCCOc1cc2c(cc1Cl)-c1c(cc(C(=O)O)c(=O)n1C1CC1)C(C(C)(C)COC)O2` (stereo not drawn) [Compound 19, 9-chloro-1-cyclopropyl-5-(2-methoxy-1,1-dimethyl-ethyl)-8-(3-methoxypropoxy) -2-oxo-5H-chromeno[4,3-b]pyridine-3-carboxylic acid] are “++ (50-75%)”, 22 to 50 nM, “++ (50-75%)” and 22 to 50 nM.
On the same counts, the results for `COCCCOc1cc2c(cc1F)-c1c(cc(C(=O)O)c(=O)n1C1CC1)[C@H](C(C)C)O2` [Compound 44, (5S)-1-cyclopropyl-9-fluoro-5-isopropyl-8-(3-methoxypropoxy)-2-oxo-5H-chromeno[4,3-b]pyridine-3-carboxylic acid] are “++ (50-75%)”, greater than 50 nM, “++ (50-75%)” and 22 to 50 nM.
As to `COCCCOc1cc2c(cc1Cl)-c1c(cc(C(=O)O)c(=O)n1C1CC1)[C@H](C1(C)COC1)O2` [Compound 46, (5R)-9-chloro-1-cyclopropyl-8-(3-methoxypropoxy)-5-(3-methyloxetan-3-yl)-2-oxo-5H-chromeno[4,3-b]pyridine-3-carboxylic acid], in test [1], the “Delayed assay HBs ELISA % inhibition” value is given as “++ (50-75%)” and the concentration giving a half-maximal response (EC50) was 0.001 to 20 nM. In addition, in test [2], the “Standard assay HBs ELISA % inhibition” value is on record as “+++ (75-100%)” and the concentration giving a half-maximal response (EC50) is 0.001 to 20 nM.

The record behind these values is EP3720857B1, “2-OXO-5H-CHROMENO[4,3-B]PYRIDINES FOR USE IN THE TREATMENT OF HEPATITIS B” (Galapagos NV, priority 2017, dated 2019).
